Like-named read-outs stand apart in the source and are kept apart here.
Assays:
CDK14/Cyclin Y = CDK14/Cyclin Y (Homo sapiens, UniProt O94921); assay: NanoBRET live-cell target engagement, CDK14-NanoLuc/Cyclin Y in HEK-293; format: binding; conditions: CDK14/Y
CDK17/Cyclin Y = CDK17/Cyclin Y (Homo sapiens, UniProt Q00537); assay: NanoBRET live-cell target engagement, CDK17-NanoLuc/Cyclin Y in HEK-293; format: binding; conditions: CDK17/Y
CDK1/Cyclin E1 = CDK1/Cyclin E1 (Homo sapiens, UniProt P06493); assay: NanoBRET live-cell target engagement, CDK1-NanoLuc/Cyclin E1 in HEK-293; format: binding; conditions: CDK1/E1; for IC50: read-out: IC50
Sequence of CDK1/Cyclin E1 (P06493 whole entry): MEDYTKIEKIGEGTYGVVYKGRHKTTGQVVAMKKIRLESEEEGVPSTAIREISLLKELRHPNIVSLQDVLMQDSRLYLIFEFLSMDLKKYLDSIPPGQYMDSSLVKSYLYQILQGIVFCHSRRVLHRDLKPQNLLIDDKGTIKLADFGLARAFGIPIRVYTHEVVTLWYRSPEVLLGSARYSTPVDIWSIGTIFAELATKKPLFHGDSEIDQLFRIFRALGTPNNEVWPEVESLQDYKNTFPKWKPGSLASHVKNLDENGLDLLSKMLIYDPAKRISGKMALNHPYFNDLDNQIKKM
Sequence of CDK1/Cyclin E1 (P24864 whole entry partner): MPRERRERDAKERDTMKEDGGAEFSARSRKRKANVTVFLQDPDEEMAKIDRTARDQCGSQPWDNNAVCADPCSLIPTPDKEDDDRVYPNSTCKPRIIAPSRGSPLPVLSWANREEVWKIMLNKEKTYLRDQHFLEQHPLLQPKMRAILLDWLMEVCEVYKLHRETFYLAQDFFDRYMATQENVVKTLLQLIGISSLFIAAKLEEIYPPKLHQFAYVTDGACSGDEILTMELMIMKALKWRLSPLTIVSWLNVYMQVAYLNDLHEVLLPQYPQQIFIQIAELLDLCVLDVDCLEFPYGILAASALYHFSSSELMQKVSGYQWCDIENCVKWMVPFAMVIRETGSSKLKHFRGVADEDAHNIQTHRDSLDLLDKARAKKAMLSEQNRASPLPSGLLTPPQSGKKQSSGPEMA

CDK7 = CDK7 (Homo sapiens, UniProt P50613); assay: NanoBRET live-cell target engagement, NanoLuc-CDK7 in HEK-293; format: binding; conditions: CDK7; for IC50: read-out: IC50
CDK18/Cyclin Y = CDK18/Cyclin Y (Homo sapiens, UniProt Q07002); assay: NanoBRET live-cell target engagement, CDK18-NanoLuc/Cyclin Y in HEK-293; format: binding; conditions: CDK18/Y
Sequence of CDK18/Cyclin Y (Q07002 whole entry): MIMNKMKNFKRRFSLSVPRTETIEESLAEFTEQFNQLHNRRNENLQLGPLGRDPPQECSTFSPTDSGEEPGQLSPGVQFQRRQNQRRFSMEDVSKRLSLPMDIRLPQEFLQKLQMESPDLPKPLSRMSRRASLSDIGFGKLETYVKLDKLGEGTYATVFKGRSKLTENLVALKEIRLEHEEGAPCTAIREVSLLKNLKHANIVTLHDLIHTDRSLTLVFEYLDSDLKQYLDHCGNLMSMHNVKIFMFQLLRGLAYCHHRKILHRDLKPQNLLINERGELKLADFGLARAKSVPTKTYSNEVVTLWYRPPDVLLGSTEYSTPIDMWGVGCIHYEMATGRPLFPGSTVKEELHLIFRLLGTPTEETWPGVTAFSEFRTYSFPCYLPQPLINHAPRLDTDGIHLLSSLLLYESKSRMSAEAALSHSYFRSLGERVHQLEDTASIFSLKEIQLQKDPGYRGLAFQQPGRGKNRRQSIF
Sequence of CDK18/Cyclin Y (Q8ND76 whole entry partner): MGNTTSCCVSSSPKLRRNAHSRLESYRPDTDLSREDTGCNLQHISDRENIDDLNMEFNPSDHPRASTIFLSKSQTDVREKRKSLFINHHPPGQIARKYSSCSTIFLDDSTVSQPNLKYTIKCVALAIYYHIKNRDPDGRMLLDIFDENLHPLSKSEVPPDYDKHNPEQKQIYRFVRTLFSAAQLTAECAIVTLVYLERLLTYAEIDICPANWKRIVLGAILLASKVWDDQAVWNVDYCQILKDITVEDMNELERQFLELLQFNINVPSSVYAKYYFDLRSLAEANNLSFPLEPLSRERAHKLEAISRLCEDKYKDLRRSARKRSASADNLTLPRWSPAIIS

CDK11B/Cyclin L2 = CDK11B/Cyclin L2 (Homo sapiens, UniProt P21127); assay: NanoBRET live-cell target engagement, CDK11B-NanoLuc/Cyclin L2 in HEK-293; format: binding; conditions: CDK11b/L2
CDK8/Cyclin C = CDK8/Cyclin C (Homo sapiens, UniProt P49336); assay: NanoBRET live-cell target engagement, NanoLuc-CDK8/Cyclin C in HEK-293; format: binding; conditions: CDK8/C; for IC50: read-out: IC50
CDK11A/Cyclin L2 = biological target: T1, CDK11A/Cyclin L2 (Homo sapiens, UniProt Q9UQ88); assay: NanoBRET live-cell target engagement, CDK11A-NanoLuc/Cyclin L2 in HEK-293; format: binding; conditions: CDK11a/L2
T1 sequence (Q9UQ88 1-783): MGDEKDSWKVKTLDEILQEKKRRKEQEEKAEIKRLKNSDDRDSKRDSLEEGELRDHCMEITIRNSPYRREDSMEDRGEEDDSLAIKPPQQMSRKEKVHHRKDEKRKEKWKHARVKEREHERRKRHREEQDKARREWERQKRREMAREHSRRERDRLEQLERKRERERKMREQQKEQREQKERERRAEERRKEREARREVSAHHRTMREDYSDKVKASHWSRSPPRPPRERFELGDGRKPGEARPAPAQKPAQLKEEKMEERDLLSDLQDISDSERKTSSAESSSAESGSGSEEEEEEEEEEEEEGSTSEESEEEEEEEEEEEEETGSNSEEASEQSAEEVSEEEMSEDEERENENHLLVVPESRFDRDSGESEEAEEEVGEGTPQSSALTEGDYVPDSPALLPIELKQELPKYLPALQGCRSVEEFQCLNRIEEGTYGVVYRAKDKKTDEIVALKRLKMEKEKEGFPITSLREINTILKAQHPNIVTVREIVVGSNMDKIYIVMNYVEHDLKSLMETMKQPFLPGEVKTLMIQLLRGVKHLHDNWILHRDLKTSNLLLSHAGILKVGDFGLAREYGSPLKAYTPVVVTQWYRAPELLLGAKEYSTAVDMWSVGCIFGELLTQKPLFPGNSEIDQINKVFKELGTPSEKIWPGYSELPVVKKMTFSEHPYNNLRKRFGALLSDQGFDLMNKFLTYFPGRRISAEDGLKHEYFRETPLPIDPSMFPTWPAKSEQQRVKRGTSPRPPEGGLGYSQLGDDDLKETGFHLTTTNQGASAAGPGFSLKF

CDK20/Cyclin H = CDK20/Cyclin H (Homo sapiens, UniProt Q8IZL9); assay: NanoBRET live-cell target engagement, NanoLuc-CDK20/Cyclin H in HEK-293; format: binding; conditions: CDK20/H
CDK5/CDK5R1 = CDK5/CDK5R1 (Homo sapiens, UniProt Q00535); assay: NanoBRET live-cell target engagement, CDK5-NanoLuc/CDK5R1 in HEK-293; format: binding; conditions: CDK5/CDK5R1; for IC50: read-out: IC50
CDK9/Cyclin K = CDK9/Cyclin K (Homo sapiens, UniProt P50750); assay: NanoBRET live-cell target engagement, NanoLuc-CDK9/Cyclin K in HEK-293; format: binding; conditions: CDK9/K
Sequence of CDK9/Cyclin K (P50750 whole entry): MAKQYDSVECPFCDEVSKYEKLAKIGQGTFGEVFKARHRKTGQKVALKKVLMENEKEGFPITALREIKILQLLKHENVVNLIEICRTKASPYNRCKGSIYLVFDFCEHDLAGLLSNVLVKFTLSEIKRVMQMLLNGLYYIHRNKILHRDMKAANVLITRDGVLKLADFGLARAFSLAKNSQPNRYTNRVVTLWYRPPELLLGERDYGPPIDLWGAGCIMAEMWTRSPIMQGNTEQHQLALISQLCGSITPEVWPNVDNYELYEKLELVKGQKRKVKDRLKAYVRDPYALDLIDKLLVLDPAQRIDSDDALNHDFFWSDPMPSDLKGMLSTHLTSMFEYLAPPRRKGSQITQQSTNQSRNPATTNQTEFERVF
Sequence of CDK9/Cyclin K (O75909 whole entry partner): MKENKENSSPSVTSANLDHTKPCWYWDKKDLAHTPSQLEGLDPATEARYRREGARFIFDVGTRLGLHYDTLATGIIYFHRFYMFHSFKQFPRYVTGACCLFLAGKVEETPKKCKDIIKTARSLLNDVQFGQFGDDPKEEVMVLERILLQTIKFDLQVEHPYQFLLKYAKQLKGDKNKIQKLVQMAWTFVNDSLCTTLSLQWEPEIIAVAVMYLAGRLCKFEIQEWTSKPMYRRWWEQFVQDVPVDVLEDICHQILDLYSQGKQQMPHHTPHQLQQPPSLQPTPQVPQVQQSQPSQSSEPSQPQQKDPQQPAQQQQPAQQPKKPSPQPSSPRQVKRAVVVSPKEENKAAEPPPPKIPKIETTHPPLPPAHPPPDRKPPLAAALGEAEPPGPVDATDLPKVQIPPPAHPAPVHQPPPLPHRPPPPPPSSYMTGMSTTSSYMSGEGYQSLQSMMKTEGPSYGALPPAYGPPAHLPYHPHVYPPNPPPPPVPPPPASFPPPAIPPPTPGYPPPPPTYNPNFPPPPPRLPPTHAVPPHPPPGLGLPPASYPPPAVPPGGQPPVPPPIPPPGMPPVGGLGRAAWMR

CDK13/Cyclin K = CDK13/Cyclin K (Homo sapiens, UniProt Q14004); assay: NanoBRET live-cell target engagement, CDK13-NanoLuc/Cyclin K in HEK-293; format: binding; conditions: CDK13/K
Sequence of CDK13/Cyclin K (O75909 whole entry): as the sequence (O75909 whole entry partner) above
Sequence of CDK13/Cyclin K (Q14004 other isoform, or with tags, fused parts or gaps): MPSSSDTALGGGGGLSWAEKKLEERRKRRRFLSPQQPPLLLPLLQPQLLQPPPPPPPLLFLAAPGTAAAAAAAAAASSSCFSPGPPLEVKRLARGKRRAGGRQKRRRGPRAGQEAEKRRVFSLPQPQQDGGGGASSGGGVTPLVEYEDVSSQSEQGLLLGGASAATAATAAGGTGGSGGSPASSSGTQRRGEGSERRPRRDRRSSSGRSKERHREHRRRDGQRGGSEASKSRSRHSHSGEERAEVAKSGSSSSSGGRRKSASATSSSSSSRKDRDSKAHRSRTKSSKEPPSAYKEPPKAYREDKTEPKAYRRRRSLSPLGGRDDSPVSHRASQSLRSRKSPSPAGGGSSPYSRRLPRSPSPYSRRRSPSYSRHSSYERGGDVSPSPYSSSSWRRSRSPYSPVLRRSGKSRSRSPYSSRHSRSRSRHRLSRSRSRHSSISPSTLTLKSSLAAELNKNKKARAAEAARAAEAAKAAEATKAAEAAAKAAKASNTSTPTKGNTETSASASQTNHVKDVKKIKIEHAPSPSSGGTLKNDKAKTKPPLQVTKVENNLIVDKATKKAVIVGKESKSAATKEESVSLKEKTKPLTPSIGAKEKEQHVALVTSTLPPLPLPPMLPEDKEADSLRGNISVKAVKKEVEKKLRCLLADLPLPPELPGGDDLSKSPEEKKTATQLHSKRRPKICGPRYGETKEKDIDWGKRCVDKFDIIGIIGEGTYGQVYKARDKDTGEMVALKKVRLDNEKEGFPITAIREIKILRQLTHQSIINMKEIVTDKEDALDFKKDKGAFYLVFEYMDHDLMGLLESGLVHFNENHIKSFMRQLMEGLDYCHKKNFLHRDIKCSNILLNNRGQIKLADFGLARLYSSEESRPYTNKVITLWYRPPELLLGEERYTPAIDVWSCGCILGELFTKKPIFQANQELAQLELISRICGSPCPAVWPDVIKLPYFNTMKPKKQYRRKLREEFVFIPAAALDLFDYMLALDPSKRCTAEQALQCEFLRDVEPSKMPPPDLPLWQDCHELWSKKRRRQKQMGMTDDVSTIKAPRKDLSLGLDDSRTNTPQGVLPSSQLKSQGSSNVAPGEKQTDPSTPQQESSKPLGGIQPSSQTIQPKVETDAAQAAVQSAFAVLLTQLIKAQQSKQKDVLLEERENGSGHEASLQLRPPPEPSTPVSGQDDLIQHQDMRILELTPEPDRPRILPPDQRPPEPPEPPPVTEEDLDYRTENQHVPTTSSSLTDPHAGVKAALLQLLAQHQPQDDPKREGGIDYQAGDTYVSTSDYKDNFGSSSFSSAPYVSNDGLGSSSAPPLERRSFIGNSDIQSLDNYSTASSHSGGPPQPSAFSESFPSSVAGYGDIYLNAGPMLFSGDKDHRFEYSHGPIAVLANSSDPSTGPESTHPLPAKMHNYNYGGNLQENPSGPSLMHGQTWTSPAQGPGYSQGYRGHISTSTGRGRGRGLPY

CDK10/Cyclin L2 = CDK10/Cyclin L2 (Homo sapiens, UniProt Q15131); assay: NanoBRET live-cell target engagement, CDK10-NanoLuc/Cyclin L2 in HEK-293; conditions: CDK10/L2
CDK4/Cyclin D1 = CDK4/Cyclin D1 (Homo sapiens, UniProt P11802); assay: NanoBRET live-cell target engagement, NanoLuc-CDK4/Cyclin D1 in HEK-293; format: binding; conditions: CDK4/D1
CDK12/Cyclin K = CDK12/Cyclin K (Homo sapiens, UniProt Q9NYV4); assay: NanoBRET live-cell target engagement, CDK12-NanoLuc/Cyclin K in HEK-293; format: binding; conditions: CDK12/K
CDK16/Cyclin Y = CDK16/Cyclin Y (Homo sapiens, UniProt Q00536); assay: NanoBRET live-cell target engagement, CDK16-NanoLuc/Cyclin Y in HEK-293; format: binding; conditions: CDK16/Y
CDK6/Cyclin D1 = CDK6/Cyclin D1 (Homo sapiens, UniProt Q00534); assay: NanoBRET live-cell target engagement, NanoLuc-CDK6/Cyclin D1 in HEK-293; format: binding; conditions: CDK6/D1
CDK19/Cyclin C = CDK19/Cyclin C (Homo sapiens, UniProt Q9BWU1); assay: NanoBRET live-cell target engagement, NanoLuc-CDK19/Cyclin C in HEK-293; conditions: CDK19/C
CDK15/Cyclin Y = CDK15/Cyclin Y (Homo sapiens, UniProt Q96Q40); assay: NanoBRET live-cell target engagement, NanoLuc-CDK15/Cyclin Y in HEK-293; format: binding; conditions: CDK15/Y
Sequence of CDK15/Cyclin Y (Q96Q40 whole entry): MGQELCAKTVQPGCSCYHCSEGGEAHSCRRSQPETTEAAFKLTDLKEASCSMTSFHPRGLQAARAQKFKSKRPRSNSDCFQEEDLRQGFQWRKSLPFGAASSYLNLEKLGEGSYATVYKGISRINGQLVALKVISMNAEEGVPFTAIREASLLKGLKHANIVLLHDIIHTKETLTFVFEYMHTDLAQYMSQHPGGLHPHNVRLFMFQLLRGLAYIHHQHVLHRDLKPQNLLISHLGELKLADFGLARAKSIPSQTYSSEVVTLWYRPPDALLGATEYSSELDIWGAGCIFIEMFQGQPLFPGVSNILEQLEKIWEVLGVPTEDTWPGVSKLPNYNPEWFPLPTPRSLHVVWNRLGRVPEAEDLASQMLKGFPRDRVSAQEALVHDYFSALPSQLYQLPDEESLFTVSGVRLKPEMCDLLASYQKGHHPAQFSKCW
Sequence of CDK15/Cyclin Y (Q8ND76 whole entry partner): as the sequence (Q8ND76 whole entry partner) above

Sequence of CDK14/Cyclin Y (O94921 whole entry): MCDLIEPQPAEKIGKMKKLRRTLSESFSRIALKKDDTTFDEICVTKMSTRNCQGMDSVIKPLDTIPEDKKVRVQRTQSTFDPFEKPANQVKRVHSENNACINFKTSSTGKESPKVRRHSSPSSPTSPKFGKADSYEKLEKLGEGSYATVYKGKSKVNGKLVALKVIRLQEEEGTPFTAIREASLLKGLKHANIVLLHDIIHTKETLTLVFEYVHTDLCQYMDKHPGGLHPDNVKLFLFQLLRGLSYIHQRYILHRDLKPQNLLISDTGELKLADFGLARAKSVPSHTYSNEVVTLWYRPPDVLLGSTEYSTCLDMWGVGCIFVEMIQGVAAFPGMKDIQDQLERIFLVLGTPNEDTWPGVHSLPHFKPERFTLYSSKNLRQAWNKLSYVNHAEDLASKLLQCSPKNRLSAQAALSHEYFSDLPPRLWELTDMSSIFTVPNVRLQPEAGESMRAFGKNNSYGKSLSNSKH
Sequence of CDK14/Cyclin Y (Q8ND76 whole entry partner): as the sequence (Q8ND76 whole entry partner) above

CCn1cnc2c(Nc3cccc(Cl)c3)nc(N[C@@H]3CCCC[C@@H]3N)nc21 [CGP74514A]
Inhibition at 10µM (%) (CDK14/Cyclin Y; average): 63.7%
Inhibition at 10µM (%) (CDK14/Cyclin Y; experiment 1): 59.7%
Inhibition at 10µM (%) (CDK14/Cyclin Y; experiment 2): 67.6%
Inhibition at 10µM (%) (CDK17/Cyclin Y; average): 80.2%
Inhibition at 10µM (%) (CDK17/Cyclin Y; experiment 1): 79.4%
Inhibition at 10µM (%) (CDK17/Cyclin Y; experiment 2): 81.0%
Inhibition at 10µM (%) (CDK1/Cyclin E1; average): 78.9%
IC50 (CDK1/Cyclin E1; average (± SEM where n=3)): 130 nM
Inhibition at 10µM (%) (CDK1/Cyclin E1; experiment 1): 77.7%
IC50 (CDK1/Cyclin E1; experiment 1): 100 nM
Inhibition at 10µM (%) (CDK1/Cyclin E1; experiment 2): 80.1%
IC50 (CDK1/Cyclin E1; experiment 2): 163 nM
Inhibition at 10µM (%) (CDK7; average): 93.3%
IC50 (CDK7; average (± SEM where n=3)): 95 nM
Inhibition at 10µM (%) (CDK7; experiment 1): 96.5%
IC50 (CDK7; experiment 1): 100 nM
Inhibition at 10µM (%) (CDK7; experiment 2): 90.2%
IC50 (CDK7; experiment 2): 90 nM
Inhibition at 10µM (%) (CDK18/Cyclin Y; average): 86.9%
Inhibition at 10µM (%) (CDK18/Cyclin Y; experiment 1): 81.1%
Inhibition at 10µM (%) (CDK18/Cyclin Y; experiment 2): 92.6%
Inhibition at 10µM (%) (CDK11B/Cyclin L2; average): 21.5%
Inhibition at 10µM (%) (CDK11B/Cyclin L2; experiment 1): 20.4%
Inhibition at 10µM (%) (CDK11B/Cyclin L2; experiment 2): 22.7%
Inhibition at 10µM (%) (CDK8/Cyclin C; average): 3.2%
IC50 (CDK8/Cyclin C; average (± SEM where n=3)): 260 nM
Inhibition at 10µM (%) (CDK8/Cyclin C; experiment 1): 5.8%
IC50 (CDK8/Cyclin C; experiment 1): 290 nM
Inhibition at 10µM (%) (CDK8/Cyclin C; experiment 2): 0.659%
IC50 (CDK8/Cyclin C; experiment 2): 230 nM
Inhibition at 10µM (%) (CDK11A/Cyclin L2; average): 29.9%
Inhibition at 10µM (%) (CDK11A/Cyclin L2; experiment 1): 16.5%
Inhibition at 10µM (%) (CDK11A/Cyclin L2; experiment 2): 43.3%
Inhibition at 10µM (%) (CDK20/Cyclin H; experiment 1): 40.4%
Inhibition at 10µM (%) (CDK20/Cyclin H; experiment 2): 47.3%
Inhibition at 10µM (%) (CDK5/CDK5R1; average): 93.3%
IC50 (CDK5/CDK5R1; average (± SEM where n=3)): 100 nM
Inhibition at 10µM (%) (CDK5/CDK5R1; experiment 1): 90.4%
IC50 (CDK5/CDK5R1; experiment 1): 74 nM
Inhibition at 10µM (%) (CDK5/CDK5R1; experiment 2): 96.2%
IC50 (CDK5/CDK5R1; experiment 2): 130 nM
Inhibition at 10µM (%) (CDK9/Cyclin K; average): 71.1%
Inhibition at 10µM (%) (CDK9/Cyclin K; experiment 1): 68.0%
Inhibition at 10µM (%) (CDK9/Cyclin K; experiment 2): 74.2%
Inhibition at 10µM (%) (CDK13/Cyclin K; average): 35.2%
Inhibition at 10µM (%) (CDK13/Cyclin K; experiment 1): 36.4%
Inhibition at 10µM (%) (CDK13/Cyclin K; experiment 2): 33.9%
Inhibition at 10µM (%) (CDK10/Cyclin L2; average): 40.2%
Inhibition at 10µM (%) (CDK10/Cyclin L2; experiment 1): 37.4%
Inhibition at 10µM (%) (CDK10/Cyclin L2; experiment 2): 42.9%
Inhibition at 10µM (%) (CDK4/Cyclin D1; average): 72.2%
Inhibition at 10µM (%) (CDK4/Cyclin D1; experiment 1): 63.2%
Inhibition at 10µM (%) (CDK4/Cyclin D1; experiment 2): 81.2%
Inhibition at 10µM (%) (CDK12/Cyclin K; average): 36.8%
Inhibition at 10µM (%) (CDK12/Cyclin K; experiment 1): 42.2%
Inhibition at 10µM (%) (CDK12/Cyclin K; experiment 2): 31.4%
Inhibition at 10µM (%) (CDK16/Cyclin Y; experiment 1): 76.4%
Inhibition at 10µM (%) (CDK16/Cyclin Y; experiment 2): 76.7%
Inhibition at 10µM (%) (CDK6/Cyclin D1; average): 58.7%
Inhibition at 10µM (%) (CDK6/Cyclin D1; experiment 1): 51.0%
Inhibition at 10µM (%) (CDK6/Cyclin D1; experiment 2): 66.5%
Inhibition at 10µM (%) (CDK19/Cyclin C; average): 9.3%
Inhibition at 10µM (%) (CDK19/Cyclin C; experiment 1): 26.1%
Inhibition at 10µM (%) (CDK19/Cyclin C; experiment 2): -7.5%
Inhibition at 10µM (%) (CDK15/Cyclin Y; average): 85.2%
Inhibition at 10µM (%) (CDK15/Cyclin Y; experiment 1): 84.1%
Inhibition at 10µM (%) (CDK15/Cyclin Y; experiment 2): 86.4%

Reference: article PMC7265341, “Quantifying CDK inhibitor selectivity in live cells” (Nature Communications, 2020)
